Assay results reported in patent US11492341B2, “ACLY inhibitors and uses thereof” (Nimbus Artemis, Inc., priority 2018, dated 2022).
pIC50: −log10 of the molar value.

The compounds below were run against ACL (Homo sapiens (Human), UniProt P53396) (assay: ADP-Glo Assay). Conditions: 3 nM ACL, 15 μM ATP, 3 μM CoA, 300 μM Citrate.
Assay type: biochemical
Experimental: Example 28. ADP-Glo Assay
Compounds of the present invention were evaluated in an ADP-GLO assay as follows: a) Dilute cpd 1:3 in succession in DMSO by hand for each cpds for 12 pts b) Add 0.1 μL diluted cpd solution to assay plate, each dose with 2 replicates c) Centrifuge 1000 RPM for 1 min d) Add 5 μL ACL working solution to 384-well assay plate, centrifuge 1000 RPM for 1 min e) Incubate at 25° C. for 15 min f) Add 5 μL substrate working solution to initiate reaction g) Final ACL reaction concentrations: 3 nM ACL, 15 μM ATP, 3 μM CoA, 300 μM Citrate, 0.01% Brij35, 4 mM DTT, 1% DMSO; h) Reference final conc: 30 uM starting Conc, 3× dilution, 11+0 points. Test cpd conc: 30/100 uM starting Conc, 3× dilution, 11+0 points. i) Incubate at 25° C. for 60 min j) Add 10 μL ADP Glo reagent, centrifuge 1000 RPM for 1 min k) Incubate at 25° C. for 40 min l) Add 20 μL kinase detection reagent, centrifuge 1000 RPM for 1 min m) Incubate at 25° C. for 40 min n) Read on Envision for US LUM as RLU

Sequence of ACL (P53396 whole entry, species assumed): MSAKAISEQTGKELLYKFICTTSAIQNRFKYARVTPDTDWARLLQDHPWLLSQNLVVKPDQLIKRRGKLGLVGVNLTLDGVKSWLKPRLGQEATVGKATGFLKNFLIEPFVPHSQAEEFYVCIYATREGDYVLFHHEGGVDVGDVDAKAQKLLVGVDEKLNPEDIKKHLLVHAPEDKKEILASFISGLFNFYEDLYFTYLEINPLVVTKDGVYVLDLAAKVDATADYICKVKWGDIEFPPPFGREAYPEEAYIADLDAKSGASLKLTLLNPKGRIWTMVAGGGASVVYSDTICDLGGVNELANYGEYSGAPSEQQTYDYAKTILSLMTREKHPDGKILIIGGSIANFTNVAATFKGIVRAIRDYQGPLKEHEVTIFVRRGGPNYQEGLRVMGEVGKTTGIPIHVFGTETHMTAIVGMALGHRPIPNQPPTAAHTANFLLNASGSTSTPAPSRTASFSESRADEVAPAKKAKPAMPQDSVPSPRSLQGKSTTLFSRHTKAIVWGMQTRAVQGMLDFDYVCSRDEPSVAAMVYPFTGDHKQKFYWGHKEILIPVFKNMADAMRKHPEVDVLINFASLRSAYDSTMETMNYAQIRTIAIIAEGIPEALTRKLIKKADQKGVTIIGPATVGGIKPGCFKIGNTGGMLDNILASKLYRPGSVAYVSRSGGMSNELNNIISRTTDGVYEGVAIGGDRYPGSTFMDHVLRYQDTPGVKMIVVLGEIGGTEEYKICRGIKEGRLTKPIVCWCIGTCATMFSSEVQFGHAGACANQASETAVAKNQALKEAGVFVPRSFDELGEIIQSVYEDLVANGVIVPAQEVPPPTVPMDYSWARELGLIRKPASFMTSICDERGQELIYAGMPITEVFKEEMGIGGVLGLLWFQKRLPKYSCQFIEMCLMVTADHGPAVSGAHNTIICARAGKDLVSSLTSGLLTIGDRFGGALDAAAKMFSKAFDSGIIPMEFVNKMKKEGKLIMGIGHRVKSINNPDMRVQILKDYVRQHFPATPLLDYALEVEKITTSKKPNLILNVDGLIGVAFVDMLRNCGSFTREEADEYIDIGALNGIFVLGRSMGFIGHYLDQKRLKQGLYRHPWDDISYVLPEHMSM

pIC50	SMILES
4.70 to 6.30	Cc1cn(S(=O)(=O)c2cc(Br)cc(Cl)c2O)c2ccc(Cl)cc12 [I-147]
≤ 4.70	COc1c(Cl)cc(Br)cc1S(=O)(=O)n1c(-c2ccccc2)cc2cc(Cl)ccc21 [I-107, 1-((5-bromo-3-chloro-2-methoxyphenyl)sulfonyl)-5-chloro-2-phenyl-1H-indole]
4.70 to 6.30	COC(=O)c1cc2c(cc1Cl)cc(C)n2S(=O)(=O)c1cc(Br)cc(Cl)c1O [I-148]
≤ 4.70	O=S(=O)(c1cc(F)cc(F)c1O)n1c(-c2cccc[n+]2[O-])cc2cc(Cl)ccc21 [I-126]
4.70 to 6.30	O=S(=O)(c1cc(Br)cc(Cl)c1O)n1c(Cc2ccccc2OC(F)(F)F)cc2cc(Cl)ccc21 [I-151]
4.70 to 6.30	O=S(=O)(c1cc(F)cc(F)c1O)n1c(-c2cnc(C(F)(F)F)nc2)cc2cc(Cl)ccc21 [I-137]
4.70 to 6.30	O=C(NO)c1ccc2cc(-c3ccccc3)n(S(=O)(=O)c3cc(Br)cc(Cl)c3O)c2c1 [I-154]
4.70 to 6.30	COc1ncc(-c2cc3cc(Cl)ccc3n2S(=O)(=O)c2cc(F)cc(F)c2O)cn1 [I-138]
4.70 to 6.30	O=S(=O)(c1cc(F)cc(F)c1O)n1c(-c2cnccn2)cc2cc(Cl)ccc21 [I-105]
4.70 to 6.30	O=S(=O)(c1cc(F)cc(F)c1O)n1c(-c2ccc[n+]([O-])c2)cc2cc(Cl)ccc21 [I-98]
4.70 to 6.30	O=C(O)c1cc2c(cc1Cl)cc(-c1cncnc1)n2S(=O)(=O)c1cc(Br)cc(Cl)c1O [I-157]
4.70 to 6.30	O=c1[nH]cncc1-c1cc2cc(Cl)ccc2n1S(=O)(=O)c1cc(F)cc(F)c1O [I-141, 5-(5-chloro-1-((3,5-difluoro-2-hydroxyphenyl)sulfonyl)-1H-indol-2-yl)pyrimidin-4(3H)-one]
4.70 to 6.30	Cc1cnc(-c2cc3cc(Cl)ccc3n2S(=O)(=O)c2cc(F)cc(F)c2O)cn1 [I-127]
4.70 to 6.30	Cc1cc2cc(Cl)c(C(=O)O)cc2n1S(=O)(=O)c1cc(Br)cc(Cl)c1O [I-160]
≤ 4.70	O=S(=O)(c1cncc(O)c1)n1c(-c2ccccc2)cc2cc(Cl)ccc21 [I-119]
4.70 to 6.30	Cc1cc2cc(Cl)c(O)cc2n1S(=O)(=O)c1cc(Br)cc(Cl)c1O [I-158]
4.70 to 6.30	O=S(=O)(c1cc(Br)cc(Cl)c1O)n1c(-c2cnc(C(F)(F)F)nc2)cc2cc(Cl)ccc21 [I-152]
4.70 to 6.30	O=S(=O)(c1cc(F)cc(F)c1O)n1c(-c2cnc(O)nc2)cc2cc(Cl)ccc21 [I-140]
4.70 to 6.30	O=S(=O)(c1cccc(F)c1O)n1c(-c2ccccc2)cc2cc(Cl)ccc21 [I-112]
4.70 to 6.30	O=C(c1cc2cc(Cl)ccc2n1S(=O)(=O)c1cc(Br)cc(Cl)c1O)N1CCC1 [I-162]
≤ 4.70	O=S(=O)(c1ccccc1O)n1c(-c2ccccc2)cc2cc(Cl)ccc21 [I-106, 2-((5-chloro-2-phenyl-1H-indol-1-yl)sulfonyl)phenol]
4.70 to 6.30	O=S(=O)(c1cc(Br)cc(Cl)c1O)n1c(-c2cc3ccccc3s2)cc2cc(Cl)ccc21 [I-144]
4.70 to 6.30	Cc1cc2cc(Cl)ccc2n1S(=O)(=O)c1cc(Cl)c(O)cc1Br [I-149]
4.70 to 6.30	O=C(O)c1c(-c2ccccc2)c2cc(Cl)ccc2n1S(=O)(=O)c1cc(Cl)cc(Cl)c1 [I-104]
4.70 to 6.30	O=S(=O)(c1cc(F)cc(F)c1O)n1c(-c2cc3ccccc3s2)cc2cc(Cl)ccc21 [I-143, 2-((2-(benzo[b]thiophen-2-yl)-5-chloro-1H-indol-1-yl)sulfonyl)-4,6-difluorophenol]
4.70 to 6.30	Cc1nccnc1-c1cc2cc(Cl)ccc2n1S(=O)(=O)c1cc(F)cc(F)c1O [I-135]
> 6.30	O=S(=O)(c1cc(Br)cc(Cl)c1O)n1cc(-c2cncs2)c2cc(Cl)ccc21 [I-159]
4.70 to 6.30	O=C(c1cn(S(=O)(=O)c2cc(Br)cc(Cl)c2O)c2ccc(Cl)cc12)N1CCC1 [I-163]

Second part, the compound before the results:

SMILES	pIC50
O=S(=O)(c1cc(F)cc(F)c1O)n1c(-c2ccccn2)cc2cc(Cl)ccc21 [I-95]	4.70 to 6.30
Cc1c(C)n(S(=O)(=O)c2cc(Br)cc(Cl)c2O)c2ccc(Cl)cc12 [I-36]	4.70 to 6.30
O=C(O)Cc1cc2cc(Cl)ccc2n1S(=O)(=O)c1cc(Cl)cc(Cl)c1O [I-88]	4.70 to 6.30
O=S(=O)(c1cc(Cl)cc(Cl)c1O)n1c(-c2ccc(OC(F)(F)F)cc2)cc2cc(Cl)ccc21 [I-32, 2,4-dichloro-6-((5-chloro-2-(4-(trifluoromethoxy)phenyl)-1H-indol-1-yl)sulfonyl)phenol]	4.70 to 6.30
O=S(=O)(c1cc(Cl)cc(Cl)c1O)n1c(-c2cccc(OC(F)(F)F)c2)cc2cc(Cl)ccc21 [I-54]	4.70 to 6.30
O=C(O)c1ccccc1-c1cc2cc(Cl)ccc2n1S(=O)(=O)c1cc(Br)cc(Cl)c1O [I-27, 2-(1-((5-bromo-3-chloro-2-hydroxyphenyl)sulfonyl)-5-chloro-1H-indol-2-yl)benzoic acid]	4.70 to 6.30
O=c1[nH]cc(Cl)cc1S(=O)(=O)n1c(-c2ccc(OC(F)(F)F)cc2)cc2cc(Cl)ccc21 [I-64, 5-chloro-3-((5-chloro-2-(4-(trifluoromethoxy)phenyl)-1H-indol-1-yl)sulfonyl)pyridin-2(1H)-one]	4.70 to 6.30
O=S(=O)(c1cc(F)cc(F)c1O)n1c(-c2cccnc2)cc2cc(Cl)ccc21 [I-91]	4.70 to 6.30
Cc1c(-c2ccccc2)c2cc(Cl)ccc2n1S(=O)(=O)c1cc(Br)cc(Cl)c1O [I-46]	4.70 to 6.30
O=C(O)c1ccc(-c2cc3cc(Cl)ccc3n2S(=O)(=O)c2cc(Cl)cc(Cl)c2)cc1 [I-58]	4.70 to 6.30
O=C(O)c1ccc2cc(-c3ccccc3)n(S(=O)(=O)c3cc(Cl)cc(Br)c3)c2c1 [I-69]	4.70 to 6.30
O=C(O)c1cc(Cl)c(O)c(S(=O)(=O)N2CCc3ccc(-c4ccccc4)cc32)c1 [I-5]	4.70 to 6.30
CC(C)(O)c1cc2cc(Cl)ccc2n1S(=O)(=O)c1cc(Br)cc(Cl)c1O [I-39]	4.70 to 6.30
O=S(=O)(c1cc(Cl)cc(Cl)c1O)N1CC2(CCOCC2)c2ccccc21 [I-6]	4.70 to 6.30
O=S(=O)(c1cc(Br)cc(Cl)c1O)n1c(-c2ccc(OC(F)(F)F)cc2)cc2ccncc21 [I-49, 4-bromo-2-chloro-6-((2-(4-(trifluoromethoxy)phenyl)-1H-pyrrolo[2,3-c]pyridin-1-yl)sulfonyl)phenol]	4.70 to 6.30
N#Cc1ccc2c(c1)cc(-c1cncs1)n2S(=O)(=O)c1cc(F)cc(F)c1O [I-85]	4.70 to 6.30
COc1ccc2c(c1)CCN2S(=O)(=O)c1cc(Cl)cc(Cl)c1O [I-17]	4.70 to 6.30
O=C(O)c1cc(Cl)c(O)c(S(=O)(=O)n2c(-c3ccccc3)cc3cc(Cl)ccc32)c1 [I-73]	4.70 to 6.30
COC(=O)c1ccc2cc(-c3ccccc3)n(S(=O)(=O)c3cc(Br)cc(Cl)c3O)c2c1 [I-70]	4.70 to 6.30
O=C(O)c1cccc(-c2cc3cc(Cl)ccc3n2S(=O)(=O)c2cc(Br)cc(Cl)c2O)c1 [I-44]	> 6.30

SMILES	pIC50
O=S(=O)(c1cc(F)cc(F)c1O)n1c(-c2cncnc2)cc2cc(Cl)ccc21 [I-90]	4.70 to 6.30
O=S(=O)(c1cc(Cl)cc(Cl)c1O)N1CCC(Cc2ccccc2)C1 (centres unmarked) [I-18]	4.70 to 6.30
O=S(=O)(c1cc(Cl)cc(Cl)c1O)N1CCCCC1c1ccccc1 (centres unmarked) [I-22]	4.70 to 6.30
O=S(=O)(c1cc(Cl)cc(Cl)c1O)N1CCC1c1ccccc1F (centres unmarked) [I-12]	4.70 to 6.30
NC(=O)c1ccc2c(c1)cc(-c1ccccc1)n2S(=O)(=O)c1cc(Cl)cc(Cl)c1O [I-57]	4.70 to 6.30
O=S(=O)(c1cc(Br)cc(Cl)c1O)n1c(C2CC2)cc2cc(Cl)ccc21 [I-41]	4.70 to 6.30
O=S(=O)(c1cccc(Cl)c1O)n1c(-c2cncnc2)cc2cc(Cl)ccc21 [I-94]	4.70 to 6.30
O=S(=O)(c1cc(Br)cc(Cl)c1O)n1c(-c2cncnc2)cc2cc(Cl)ccc21 [I-24, 4-bromo-2-chloro-6-((5-chloro-2-(pyrimidin-5-yl)-1H-indol-1-yl)sulfonyl)phenol]	> 6.30
O=S(=O)(c1cc(Cl)cc(Cl)c1O)N1CCOC(COc2ccccc2)C1 (centres unmarked) [I-8]	4.70 to 6.30
O=S(=O)(c1cc(Br)cc(Cl)c1O)n1c(-c2cncnc2)cc2ccccc21 [I-29, 4-bromo-2-chloro-6-((2-(pyrimidin-5-yl)-1H-indol-1-yl)sulfonyl)phenol]	4.70 to 6.30
N#Cc1cc(Cl)c(O)c(S(=O)(=O)n2c(-c3ccccc3)cc3cc(Cl)ccc32)c1 [I-78]	4.70 to 6.30
O=C(O)c1cc(Br)cc(S(=O)(=O)n2c(-c3ccccc3)cc3cc(Cl)ccc32)c1O [I-89]	4.70 to 6.30
N#Cc1ccc2c(c1)cc(-c1cncnc1)n2S(=O)(=O)c1cc(F)cc(F)c1O [I-97]	4.70 to 6.30
COc1ccc(C2CCN(S(=O)(=O)c3cc(Cl)cc(Cl)c3O)C2)cc1 (centres unmarked) [I-11]	4.70 to 6.30
CN(C)C(=O)c1ccc(-c2cc3cc(Cl)ccc3n2S(=O)(=O)c2cc(Br)cc(Cl)c2O)cc1 [I-50, 4-(1-((5-bromo-3-chloro-2-hydroxyphenyl)sulfonyl)-5-chloro-1H-indol-2-yl)-N,N-dimethylbenzamide]	4.70 to 6.30
O=C(O)c1cc2cc(Cl)ccc2n1S(=O)(=O)c1cc(Cl)cc(Cl)c1O [I-66]	4.70 to 6.30
O=S(=O)(c1cc(Cl)cc(Cl)c1O)N1CC(O)(c2ccc(Cl)cc2)C1 [I-9]	4.70 to 6.30
Cc1ccc2c(c1)cc(-c1cncnc1)n2S(=O)(=O)c1cc(F)cc(F)c1O [I-92]	4.70 to 6.30
Cc1ccc2c(c1)cc(-c1ccccc1)n2S(=O)(=O)c1cc(Br)cc(Cl)c1O [I-43]	4.70 to 6.30
O=C(O)c1ccc(-c2cc3cc(Cl)ccc3n2S(=O)(=O)c2cc(Cl)cc(Cl)c2O)cc1 [I-59]	4.70 to 6.30
